Source: paper PMC6271731, “Multitarget Molecular Hybrids of Cinnamic Acids” (Molecules, 2014)
Read-outs that look alike come from different tables or passages of the source. Marks after values point to notes of the source that are not given here.

Experiments:
[1] = target: T1, pancreatic bovine trypsin (Bos taurus, UniProt P00760); assay: Inhibition of trypsin induced proteolysis in vitro; assay type: biochemical; settings: bovine albumin substrate, pH 7.6, 37 °C; read-out: IC50 μM Trypsin Inh.
T1 construct: purchased Sigma Chemical, Co. (St. Louis, MO, USA)
T1 sequence (P00760 24-246): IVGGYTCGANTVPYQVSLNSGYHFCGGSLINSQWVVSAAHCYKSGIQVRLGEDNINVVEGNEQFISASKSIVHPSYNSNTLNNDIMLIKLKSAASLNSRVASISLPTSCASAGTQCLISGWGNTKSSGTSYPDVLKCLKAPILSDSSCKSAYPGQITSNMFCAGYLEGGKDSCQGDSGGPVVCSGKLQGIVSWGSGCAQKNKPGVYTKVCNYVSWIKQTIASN
From the text: All chemicals, solvents, chemical and biochemical reagents were of analytical grade and purchased from commercial sources (Merck, Merck KGaA, Darmstadt, Germany, Fluka Sigma-Aldrich Laborchemikalien GmbH, Hannover, Germany, Alfa Aesar, Karlsruhe, Germany and Sigma, St. Louis, MO, USA). Soybean lipoxygenase, pancreatic bovine trypsin, sodium linoleate, free radical DPPH and 2,2-azinobis-2-methyl-propanimidamine HCl (AAPH) were obtained from Sigma Chemical, Co. (St. Louis, MO, USA), carrageenin, type K, was commercially available. All starting materials were obtained from commercial sources and used without further purification.
The test was carried out according to a modified Kunitz method. Bovine albumin was used as substrate for trypsin. The reaction mixture consisted of 0.075 mg/mL trypsin (200 μL) and 780 μL of phosphate buffer pH 7.6 (including the tested compounds (20 μL in DMSO, final concentration 100 μM) preincubated at 37 °C for 20 min and then 1 mL of albumin (stock solution 6 g/100 mL in phosphate buffer 0.1 M, pH 7.6) was added and incubated at 37 °C for 30 min. After the incubation 1 mL of 5% trichloroacetic acid was added to the incubated solution to stop the enzyme’s reaction and allowed to set at room temperature for 1 h. Then the solution was filtered by filter paper and the absorption of the filtered solution was measured at 280 nm. Salicylic acid was used as a reference compound (Table 1).

[2] = tested on: acetic acid-induced writhing; assay: Antinociceptive screen (writhing test); assay type: in vivo, Wistar rats; settings: Rattus norvegicus, ip, 0.5 h, i.p. 30 min before 0.6% acetic acid, writhes counted over 30 min, read-out: % ANA (in vivo analgesic-antinociceptive activity)
Procedure: (§1) Anti-inflammatory tests were conducted on Fisher-344 inbred rats of ca. 200 g body weight whereas antinociception and motor and sensory functions after sciatic nerve crash were performed on Wistar rats. Both sexes were used. Females pregnant were excluded. Each group was composed of 6 animals. The animals, which have been bred in our laboratory, were housed under standard conditions and received a diet of commercial food pellets and water ad libitum during the maintenance. Our studies were carried out in accordance with recognised guidelines on animal experimentation.
[…] Controls received the liquid vehicle only. All the in vivo experiments were repeated at least in triplicate and were subjected to statistic analysis using the student’s t-test.
The writhing reflex was used. The test compounds were administered i.p. 30 min prior to the i.p. administration of 1 mL/100 g body weight of 0.6% acetic acid. […] After 5 min, the number of stretches characterized by repeated contractions of the abdominal musculature accompanied by extension of the hind limbs was counted every 5 min for the next 30 min. […] The % antinociceptive activity (a:a) was calculated as: % a:a = (n − n'/n) × 100 (a: a analgesic activity, n average number of writhes of control group, n' average number in the test group).

[3] = Inhibition of linoleic acid lipid peroxidation (AAPH); settings: % inhibition at 100 μM; pH 7.4, 37 °C
Procedure: Production of conjugated diene hydroperoxide by oxidation of sodium linoleate in an aqueous dispersion is monitored at 234 nm. AAPH is used as a free radical initiator [12, 24]. Ten microlitres of the 16 mM sodium linoleate solution was added to the UV cuvette containing 930 μL of 0.05 M phosphate buffer, pH 7.4 prethermostated at 37 °C. The oxidation reaction was initiated at 37 °C under air by the addition of 40 mM AAPH solution (50 μL). Ten μL of the tested compounds were added in the mixture. Lipid oxidation was measured in the presence of the same level of DMSO. The rate of oxidation at 37 °C was monitored by recording the increase in absorption at 234 nm caused by conjugated diene hydroperoxides. The results were compared to the appropriate standard inhibitor trolox (63%) (Table 1).

[4] = Lipophilicity as RM values by RP-TLC; assay type: physicochemical; settings: methanol/water 70/30, 24 °C, average of at least five measurements
From the text: Since lipophilicity is a significant physicochemical property determining distribution, bioavailability, metabolic activity and elimination, we tried to determine experimentally the lipophilicity of the new substances by a RPTLC method as RM values (Table 1) and to compare them with the corresponding theoretically calculated clog p values in n-octanol-buffer. This is considered to be a reliable, fast and convenient method for expressing lipophilicity. Lipophilicity (Table 2), was theoretically calculated as Clog p values in n-octanol-buffer by the CLOGP Programme of Biobyte Corp..
Reversed phase TLC (RP-TLC) was performed on silica gel plates impregnated with 5% (v/v) liquid paraffin in light petroleum ether. The mobile phase was a methanol/water mixture (70/30, v/v). The plates were developed in closed chromatography tanks saturated with the mobile phase at 24 °C. Spots were detected under UV light. RM values were determined from the corresponding Rf values (from five individual measurements) using the equation RM = log [(1/Rf) − 1] (Table 1).

soybean lipoxygenase = target: T2, soybean lipoxygenase (Glycine max, UniProt P08170); assay: Soybean lipoxygenase inhibition in vitro; assay type: biochemical
T2 construct: purchased Sigma Chemical, Co. (St. Louis, MO, USA)
T2 sequence (P08170 1-839): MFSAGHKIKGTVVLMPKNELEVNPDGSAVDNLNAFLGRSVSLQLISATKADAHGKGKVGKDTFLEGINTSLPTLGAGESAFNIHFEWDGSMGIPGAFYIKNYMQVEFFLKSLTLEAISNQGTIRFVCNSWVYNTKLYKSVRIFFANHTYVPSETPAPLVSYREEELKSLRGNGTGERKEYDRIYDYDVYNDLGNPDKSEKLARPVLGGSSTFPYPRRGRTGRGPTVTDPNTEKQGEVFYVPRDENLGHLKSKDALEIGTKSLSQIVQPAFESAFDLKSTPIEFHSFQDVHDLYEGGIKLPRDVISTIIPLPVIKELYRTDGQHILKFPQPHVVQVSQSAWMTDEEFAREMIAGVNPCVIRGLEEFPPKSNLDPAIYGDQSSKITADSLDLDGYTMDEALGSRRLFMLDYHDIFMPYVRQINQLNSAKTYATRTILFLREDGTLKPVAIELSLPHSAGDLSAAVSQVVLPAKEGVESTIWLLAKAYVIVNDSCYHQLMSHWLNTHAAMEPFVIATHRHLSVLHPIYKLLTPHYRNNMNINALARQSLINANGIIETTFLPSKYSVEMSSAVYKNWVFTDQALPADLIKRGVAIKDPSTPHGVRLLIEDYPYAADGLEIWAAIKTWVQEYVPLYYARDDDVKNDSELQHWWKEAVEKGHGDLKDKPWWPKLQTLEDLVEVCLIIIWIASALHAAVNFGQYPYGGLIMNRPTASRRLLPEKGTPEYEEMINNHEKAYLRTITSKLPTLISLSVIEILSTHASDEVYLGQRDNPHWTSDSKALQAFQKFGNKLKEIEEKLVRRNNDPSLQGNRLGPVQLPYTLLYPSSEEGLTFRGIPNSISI
Procedure: DMSO solution of the tested compound was incubated with sodium linoleate (0.1 mM) and 0.2 mL of soybean lipoxygenase solution (1/9 × 10^−4 w/v in saline) in buffer pH 9 (tris) and at room temperature. […] The results are given in Table 1 expressed as IC50 values or % inhibition at 100 μM.

[5] = tested on: carrageenin-induced rat paw oedema; assay: Inhibition of the carrageenin-induced rat paw oedema; assay type: in vivo, Fisher-344 rats; settings: 0.01 mmol/1 kg, i.p., 3.5 h after carrageenin
Procedure: as §1
The tested compounds 0.01 mmol/kg body weight were suspended in water with few drops of Tween 80 and ground in a mortar before use. Controls received the liquid vehicle only. All the in vivo experiments were repeated at least in triplicate and were subjected to statistic analysis using the student’s t-test.
Oedema was induced in the right hind paw of Fisher 344 rats by the intradermal injection of 0.1 mL 2% carrageenin in water. Each group was composed of 6 animals which they were entirely fasted during the experiment period. The tested compounds 0.01 mmol/kg body weight, were given intraperitoneally simultaneously with the carrageenin injection. The rats were euthanized 3.5 h after carrageenin injection. The difference between the weight of the injected and not-injected paws was calculated for each animal. The change in paw weight was compared with that in control animals (treated with water) and expressed as a percent inhibition of the oedema (ICPE % values in Table 1). Indomethacin 0.01 mmol/kg was used as reference compound. ICPE % are the mean values from two different experiments with a standard error of the mean less than 10%.

Cc1cc(=O)oc2cc(OC(=O)/C=C/c3cccc(Oc4ccccc4)c3)ccc12 [Compound 2d, (E)-4-Methyl-2-oxo-2H-chromen-7-yl 3-(3-phenoxyphenyl)acrylate]
IC50 [1]: 10 µM
inhibition in vivo at 0.01 mmol/0.1 kg [2]: 66%
AAPH % (% inhibition of lipid peroxidation) [3]: 97%
RM (±S.D.) [4]: 0.558 ± 0.040
IC50 (soybean lipoxygenase): 74 µM

CC(=O)Nc1ccc(OC(=O)/C=C/c2ccc(OCc3ccc(Br)cc3)cc2)cc1 [Compound 3a, (E)-4-Acetamidophenyl 3-(4-((4-bromobenzyl)oxy)phenyl)acrylate]
IC50 [1]: 100 µM
inhibition in vivo at 0.01 mmol/0.1 kg [2]: 52%
AAPH % (% inhibition of lipid peroxidation) [3]: 96%
RM (±S.D.) [4]: −0.24 ± 0.009
IC50 (soybean lipoxygenase): 55 µM

O=c1cc(O)c2ccccc2o1 [Compound 4-HC, 4-hydroxycoumarin, reference compound]
% ICPE (carrageenin-induced rat paw oedema inhibition) [5]: 62 * %
AAPH % (% inhibition of lipid peroxidation) [3]: 100%

O=C(O)/C=C/c1ccc(OCc2ccc(Br)cc2)cc1 [II]
% ICPE (carrageenin-induced rat paw oedema inhibition) [5]: 41.6 * %
% ICPE (carrageenin-induced rat paw oedema inhibition) ([5]; listed as acid II): 44%
inhibition in vivo at 0.01 mmol/0.1 kg [2]: 67%
AAPH % (% inhibition of lipid peroxidation) [3]: 84%
RM (±S.D.) [4]: −0.41 ± 0.026
IC50 (soybean lipoxygenase): 66 µM

O=C(O)/C=C/c1cccs1 [IV]
% ICPE (carrageenin-induced rat paw oedema inhibition) [5]: 42.7 * %
AAPH % (% inhibition of lipid peroxidation) [3]: 60%
RM (±S.D.) [4]: −0.56 ± 0.019
IC50 (soybean lipoxygenase; sodium linoleate 0.1 mM, tris buffer pH 9, room temperature, read-out: IC50 μM LOX Inh.): 98 µM

O=C(O)/C=C/c1ccccc1 [I]
IC50 [1]: 55 µM
inhibition in vivo at 0.01 mmol/0.1 kg [2]: 60.2%
AAPH % (% inhibition of lipid peroxidation) [3]: 78%
RM (±S.D.) [4]: −0.485 ± 0.044
IC50 (soybean lipoxygenase): 56 µM

COc1ccc2c(c1)c(CC(=O)O)c(C)n2C(=O)c1ccc(Cl)cc1 [Indomethacin, reference compound]
% ICPE (carrageenin-induced rat paw oedema inhibition) [5]: 47 * %
% ICPE (carrageenin-induced rat paw oedema inhibition) ([5]; listed as indomethacin): 47%
